Assays:
[1] = tested on: HIV-1 BaL; assay: Luciferase-based infection assay to determine anti-HIV-1 activity; format: cell-based; details: for HIV-1 infection of aminoglycoside-treated TZM-bl cells: HIV-1 BaL, 24 hr, compared to untreated cells
Protocol: Treatments were then removed and the infection was quantified by measuring luciferase using Bright-Glo reagents (Promega, Madison, Wis.) in an LMax luminometer (Molecular Devices, Sunnyvale, Calif.). Cytotoxicity and metabolic activity of cells were verified by a tetrazolium-based MTT assay (R& D systems, Minneapolis, Minn.) performed on identically treated cells.
For antibody-mediated neutralization experiments, TZM-bl cells (4000 cells/well; 96 well plate) were cultured in D10^− medium and treated with vehicle (PBS) or 10 μg/ml of tobramycin for 24 hr. The next day, cells were treated with either rabbit preimmune or anti-retrocyclin serum diluted 1:10 in D10^− medium containing tobramycin or RC-100 (2.5 μg/ml). Two hours later the cells were infected with HIV-1 BaL (p24 of 5 ng/ml) at 37° C. for 24 hr. Viral infection was quantified as described above.

[2] = tested on: retrocyclin peptides; assay: Immunostaining of aminoglycoside-treated TZM-bl cells with anti-retrocyclin antibody; format: cell-based; details: 10 μg/ml, 24 hr
Excerpt: The coverslips were then processed for immunofluorescence staining with anti-retrocyclin (rabbit anti-RC-101 antibody) or pre-immune serum as described above.

[3] = tested on: Cervicovaginal tissues (EpiVaginal); assay: MTT assay on organotypic cervicovaginal tissue; format: cell-based, human; details: one tissue, data not shown
Protocol: (§1) Cervicovaginal tissues were treated topically with 100 μl of PBS (control; n=4) or with 10 μg/ml of tobramycin (n=8) for 24 hr. Viability was assessed on control and tobramycin-treated tissue (n=1) using MTT assay kit (MatTek Corp., Ashland, Mass.). Cytotoxicity was measured by quantifying lactate dehydrogenase (LDH) activity in the underlying medium collected 24 hr after treatment with PBS or tobramycin by using CytoTox96 non-radioactive cytotoxicity assay kit (Promega Corp., Madison, Wis.).

[4] = tested on: Cervicovaginal tissues (EpiVaginal); assay: LDH cytotoxicity assay on organotypic cervicovaginal tissue; format: cell-based, human; details: 10 μg/ml, 24 hr
Protocol: as §1

[5] = tested on: premature termination codon of retrocyclin cDNA; assay: Aminoglycoside mediated read-through of termination codon, luciferase fusion construct in HOS-CD4-CCR5 cells; format: cell-based, human; details: 10 μg/ml, 24 hr, luciferase normalized to renilla
Protocol: Wildtype and mutant retrocyclin cDNAs were subcloned into phCMV-luc-FSR vector to create unrescued RC-101 and rescued RC-101 C-terminal luciferase fusion constructs, and verified by sequencing. HOS-CD4-CCR5 cells were cultured in antibiotic free growth medium (D10^−) and co-transfected with 0.5 μg of unrescued or rescued (positive control) RC-101 plasmids along with 0.1 μg of phRL-CMV vector (transfection control containing renilla luciferase gene) using Effectene transfection reagent (Qiagen, Valencia, Calif.). The next day cells were treated for 24 hr with the appropriate aminoglycoside (40 μg/ml amikacin or 5 μg/ml gentamicin or 10 μg/ml tobramycin) or D10^− for control cells. Read-through was determined by measuring luciferase and renilla levels using a dual luciferase assay (Promega Corp., Madison, Wis.).

[6] = tested on: retrocyclin polypeptides; assay: Retrocyclin expression in cervicovaginal tissues, RP-HPLC, immuno-dotblot and immunostaining; format: cell-based, human

gentamicin
HIV-1 infection of aminoglycoside-treated TZM-bl cells [1]: inhibited HIV-1 infection

NC[C@H]1O[C@H](O[C@H]2[C@H](O)[C@@H](O[C@H]3O[C@H](CO)[C@@H](O)[C@H](N)[C@H]3O)[C@H](N)C[C@@H]2N)[C@H](N)C[C@@H]1O [tobramycin]
anti-retrocyclin immunostaining of TZM-bl cells [2]: brightly stained cells
metabolic activity of tissue (MTT assay) [3]: did not affect the metabolic activity adversely
tissue cytotoxicity (LDH activity in underlying medium) [4]: not cytotoxic
HIV-1 infection of aminoglycoside-treated TZM-bl cells [1]: inhibited HIV-1 infection
infection, preimmune serum compared to anti-retrocyclin antibodies ([1]; TZM-bl cells, tobramycin 10 μg/ml for 24 hr, then serum, HIV-1): modest yet significant reduction in infection
increase in read-through [5]: 26 fold
amount of retrocyclin polypeptides expressed in treated cervicovaginal tissues ([6]; 10 μg/ml tobramycin, estimated by densitometry of immuno-dotblot): approximately 1.6 μg/tissue
anti-retrocyclin immunohistochemical staining of cervicovaginal tissue ([6]; applied apically, 24 hr): brightly stained cells

Source: patent US8765698B2, “Methods and products for reawakening retrocyclins” (priority 2010, dated 2014)
